{"source": "patent US8859508B2", "about": "“Application of 5-methyl-1,3-benzenediol or derivatives thereof in the preparation of medicines and functional foods for treatment or prevention of depression” (Kunming Institute of Botany, Chinese Academy of Sciences, priority 2007, dated 2014)", "key": {"DD model mice": {"system": "DD model mice", "test": "TST in constant darkness (DD) model mice", "format": "in vivo, mouse", "settings": "for Immobility time (s) (mean ± SEM): oral once a day for 1 week", "protocol": "Kunming mice (Certificate Number: A4CXK(Chuan)2003-16) from the Institute of Experimental Animals, People's Hospital of Sichuan Province, were used. They were 3-4 weeks old at the beginning of the experiments and weighed 25-30 g. ORG was prepared as described in Example 1. Animals were divided into experimental groups with different doses, vehicle control groups, and an imipramine group (Sigma, Batch No. 106k1588) as positive control.\nDD model in mice: Mice were kept under 24 h continuous dark conditions. The replacement of padding, addition of food and water, and other operations were undertaken in the condition that the intensity of red light was less than 1.0 lux. The period of this condition lasted for 28 days. In the last week, ORG was administered orally once a day for 1 week. The FST and TST were carried out 30 min after the last administration. Methods and data analysis were as described above."}, "[1]": {"system": "LTP in the CA1 area of hippocampus", "test": "Long-term potentiation (LTP) recording in hippocampal slices of footshock-stressed rats", "format": "cell-based, rat", "protocol": "Rats weighing 250-300 g, from the Institute of Experimental Animals, People's Hospital of Sichuan Province, were used. ORG was prepared as described in Example 1. Fluoxetine was from Wuhan Yuancheng Technology Co. (Wuhan, China; Batch No: 1004-0801002).\nMethod of long-term potentiation (LTP) recording in hippocampus: Excitatory postsynaptic potentials (EPSPs) in the hippocampus were recorded to determine the anti-stress effect of ORG. Stress impairs LTP in the CAl area of hippocampus, and this can be rescued by anti-stress drugs. Rats were stressed by footshock as follows: 1 mA, 2 s, 5 times at intervals of 2 min. Hippocampal slices were prepared, incubated for 1 h at 34-36° C., and then kept at room temperature. ORG was applied in the bath solution. EPSPs mediated by NMDA and AMPA receptors in the CA1 region were recorded until the baseline was stable for 20 min. Then high frequency stimulation (HFS, 100 Hz, 100 pulses, 20 s interval) was used to induce LTP. The EPSPs were recorded for 1 h after HFS.\nData Analysis: Data are expressed as mean±SEM and LTP is expressed as the percentage of the average amplitude of the last 10 min relative to the baseline. One-way ANOVA was used followed by the LSD test with SPSS 11 software. The significance level was set at P<0.05."}, "rats [2]": {"system": "rats", "test": "Footshock-induced freezing behavior test in rats", "format": "in vivo, rat", "settings": "i.p. 24 h and 5 h before test", "protocol": "(§1) Kunming mice (Certificate Number: A4CXK(Chuan)2003-16) from the Institute of Experimental Animals, People's Hospital of Sichuan Province, were used. They were 3-4 weeks old at the beginning of the experiment and weighed 25-30 g. ORG was prepared as described in Example 1. Animals were divided into drug administration groups with different doses of ORG, a vehicle control group, and a diazepam group (Jinyao Ltd. Co., Batch No. 106k1588) as positive control.\n(§2) Footshock-induced freezing behavior: Animals received an i.p. injection of ORG or vehicle 24 h and 5 h before being placed in a standard conditioning chamber (Med Associates, USA) for a 10 min training session. Two, 4, 6, 8, and 10 min after the onset of the session, a footshock (0.8 mA, 2 s) was delivered through the grid floor of the chamber. The freezing time during the last 5 min were recorded. Rats were placed in the chamber again without footshock 24 h after the first training, and the freezing time was recorded.\n(§3) Data analysis: The results of the test are expressed as mean±SEM. One-way ANOVA was used followed by the LSD test with SPSS 11 software. The significance level was set at P<0.05."}, "rats [3]": {"system": "rats", "test": "Conditioned fear stress-induced freezing behavior test in rats", "format": "in vivo, rat", "settings": "i.p. 24 h and 5 h before footshocks, re-exposure 24 h later", "protocol": "as §1, §2, §3"}}}
{"molecule": "Cc1cc(O)cc(OC2OC(CO)C(O)C(O)C2O)c1", "note": "[ORG, orcinol-1-O-β-D-glucopyranoside]", "values": [{"measurement": "therapeutic index = TD50÷ED50", "setting": "DD model mice; DD mice", "result": "> 1000"}, {"measurement": "Immobility time (s) (mean ± SEM)", "setting": "DD model mice; DD mice, 5 mg/kg", "result": "146.30 ± 11.66", "unit": "s"}, {"measurement": "Immobility time (s) (mean ± SEM)", "setting": "DD model mice; DD mice, 10 mg/kg", "result": "145.31 ± 12.41", "unit": "s"}, {"measurement": "Immobility time (s) (mean ± SEM)", "setting": "DD model mice; DD mice, 20 mg/kg", "result": "140.69 ± 14.138", "unit": "s"}, {"measurement": "Immobility time (s) (mean ± SEM)", "setting": "DD model mice; DD mice, test 30 min after last dose, 1.25 mg/kg", "result": "171.20 ± 13.02", "unit": "s"}, {"measurement": "dose of the best efficacy", "setting": "DD model mice; DD model mice, ORG oral", "result": 20, "unit": "mg/kg"}, {"measurement": "ED50", "setting": "DD model mice; Mus musculus, DD model mice, ORG oral", "result": "~1.75", "unit": "mg/kg"}, {"measurement": "LTP, Average of last 10 min (mean ± SEM)", "setting": "[1]; control (non-stressed) slices incubated with 5 μM, percentage of average EPSP amplitude of last 10 min relative to baseline", "result": "122.93 ± 3.75"}, {"measurement": "LTP, Average of last 10 min (mean ± SEM)", "setting": "[1]; footshock (FS) stressed rat slices incubated with 50 nM, percentage relative to baseline", "result": "128.99 ± 7.30"}, {"measurement": "LTP, Average of last 10 min (mean ± SEM)", "setting": "[1]; footshock (FS) stressed rat slices incubated with 5 μM, percentage relative to baseline", "result": "189.56 ± 23.6"}, {"measurement": "Duration of freezing (s) (mean ± S.E.)", "setting": "rats [2]; 5 mg/kg", "result": "203.90 ± 34.09", "unit": "s"}, {"measurement": "Duration of freezing (s) (mean ± S.E.)", "setting": "rats [2]; 20 mg/kg", "result": "100.70 ± 21.78", "unit": "s"}, {"measurement": "Duration of freezing (s) (mean ± SEM)", "setting": "rats [3]; 5 mg/kg", "result": "310.30 ± 66.19", "unit": "s"}, {"measurement": "Duration of freezing (s) (mean ± SEM)", "setting": "rats [3]; 20 mg/kg", "result": "95.00 ± 17.73", "unit": "s"}]}
